Reference: patent US20150359867A1, “OVARIAN CANCER VACCINES AND VACCINATION METHODS” (IMMUNOCELLULAR THERAPEUTICS, LTD., priority 2013, published 2015)

Tested on: T2 cells pulsed with CD133 HLA-A2 peptides
Test: IFN-γ ELISPOT assay of antigen-specific T cell response
Type: cell-based, human
Conditions: 1×10^5 CTL co-cultured with 7.5×10^4 T2 cells pulsed with 10 μg/ml of peptides, 20 hours; FIG. 3
Experimental: To test this hypothesis, effector CD8^+′ T cells were isolated and co-cultured with HLA-A2+ DC pulsed with CD133 peptides to induce antigen-specific CTLs. Antigens-specific T cell responses were evaluated by an IFN-γ ELISPOT assay.
Human monocyte-derived DC was generated using previously described methods. Briefly, monocytes were isolated from PBMC by magnetic immunoselection using EasySep human monocyte enrichment kit (Stem Cell Technologies) in accordance with the manufacturer's instructions and then cultured at […] in 20 ml of GMP CellGenix DC serum-free medium (Cat#20801-0500, Cellgenix) supplemented with 1000 unit/ml of recombinant human GM-CSF (Cat#AF-300-03, Peprotech, Inc) and recombinant human IL-4(Cat#AF-200-04, Peprotech, Inc). Cells were harvested after 3 or 6 days of culture. The DCs were washed and plated in 6-well plates at a concentration of 5×10^6 cells/well IFN-γ (1000 unit/ml) and monophosphoryl lipid A (MPLA, 20-50 μg/ml) was added into the wells to mature the DC for 24 hr or 48 hrs. Prior to some assays, DC was frozen and stored into liquid nitrogen.
In order to evaluate antigen-specific immune responses, CD8^+ T cells were isolated from fresh or frozen apheresis by positive selection using Dynabeads® CD8 Positive Isolation Kit (Life Technologies, Grand Island, N.Y.) and co-cultured with autologous mDC for four weeks. DCs were added weekly. Briefly, mDC was pulsed with synthetic peptides ([…]) for 6-8 hours at 37° C., and then treated with 20 μg/ml Mitomycin C (Sigma-Aldrich, St. Louis, Mo.) for 25 min at 37° C. and 5% CO2. […]
Antigen-specific immune responses were evaluated by the IFN-γ Elispot kit (BD Biosciences) following previously described methods. […] The colored spots, representing cytokine-producing cells, were counted under a dissecting microscope. The results were evaluated by an automated ELISPOT reader system using KS ELISPOT 4.3 software.

Sequence | antigen-specific T cell response: recognition of peptide-pulsed T2 cells by peptide-specific CTLs (IFN-γ ELISPOT)
FLLPALIFAV (listed as Homo sapiens) [CD133p804, CD133 HLA-A2 peptide, position 804-813] | can efficiently recognize T2 pulsed with these antigens and boost the T cell immune response
ILSAFSVYV (listed as Homo sapiens) [CD133p405, CD133 HLA-A2 peptide, position 405-413] | can efficiently recognize T2 pulsed with these antigens and boost the T cell immune response
YLQWIEFSI (listed as Homo sapiens) [CD133p753, CD133 HLA-A2 peptide] | can efficiently recognize T2 pulsed with these antigens and boost the T cell immune response
